In patent publication US20030104507A1, “Method for detection of ATP” (priority 2001, published 2003):

System: ATPase activity endogenous to L929 cell lysate
Assay: Detergent inhibition of ATPase endogenous to L929 cell lysate (ATP remaining by luciferase luminescence, 22° C.)
Type: biochemical
Parameters: key to Relative ATPase Activity, slope det/slope lysate: slope with detergent / slope without; ≥1.0 = 100% activity, 0.5 = 50%
Procedure: Three separate detergents in each of four detergent classes were tested: anionic [SDS (Sodium dodecyl sulfate), Bioterge (an α olefin sulfate), and sodium deoxycholate], nonionic [TRITON X-100, BigCHAP (N,N-bis(3-D-Gluconamidopropyl)cholamide) and THESIT (polyethylene glycol 400 dodecyl ether, Fluka, #88315)], cationic [BDDABr (Benzyldimethyldodecylammonium bromide), CTAB (Cetyltrimethylammonium bromide), and DTAB (dodecyltrimethylammonium bromide)] and zwitterionic [CHAPS (3[(3-Cholamidopropyl)dimethylammonio]propanesulfonic acid), CHAPSO (3-([3-Cholamidopropyl]dimethylammonio)-2-hydroxy-1-propanesulfonate), and Sulfobetaine 3-10 ([…]-N,N-dimethyl-3-ammonio-1-propanesulfonate)]. Detergents were obtained from Sigma, Fluka and Aldrich.
L929 cells (ATCC CCL-1; 1.5×10^5 cells/ml) in F12/DMEM (Hyclone, SH30023) containing 10% horse serum (Hyclone, SH30074) were frozen and thawed for four cycles to create a cell lysate. Then 50 μl of stock detergent solutions [10%, 5.0%, 1.0%, and 0.5% (w/v)] were separately added to 450 μl cell lysate, creating a final detergent concentration in the cell lysate sample of 1.0%, 0.5%, 0.1%, and 0.05%, respectively (these percentage values are those used in Tables D and E herein below). Control samples contained either lysate only or 1.0 μM ATP in 15 mM HEPES buffer (pH 7.5). All samples were incubated at 22° C. (room temperature) for the duration of the experiment.
At various timepoints, 20 μl from each sample/detergent mixture was added to a 96-well luminometer plate in triplicate, and then 100 μl of a solution (“luciferase-luciferin” or “L/L reagent”) containing 25 mM HEPES buffer (pH 7.5), 40 μg luciferase enzyme LucPpe2m146 (Promega, E140), 100 μM luciferin (Promega), and 10 mM MgSO4 was added to each well. The L/L reagent was stored at 4° C. for the duration of the experiment and then allowed to reach ambient temperature just before assaying. After mixing the contents of the plate, light output was measured with a Dynex MLX microtiter plate luminometer (Chantilly, Va.), 0.5 second reads per well with the first measurement taken five minutes after the detergent solution was combined with the sample. The average relative light units and the timepoint at which it was measured (rlu; Table D) and percent of remaining luciferase activity at the timepoint (Table E) are reported; controls were run with each set of experimental conditions as indicated. The cationic and anionic detergents were assayed on one day with one set of controls. The zwitterionic and nonionic detergents were assayed on a separate day with a separate set of controls. The DTAB at 0.5% was assayed on both days (1 and 2).
The experiment was performed as detailed in Example 1. The average relative light unit values and the percent of ATP remaining values are listed below in Table F and G respectively.
The log of the percent of ATP remaining after original timepoint values from Table E and Table G were plotted on the y axis against time (in minutes) on the x axis. The slope of the line generated by these values in the presence of detergent was divided by the slope of the line generated by the values in the absence of detergent (lysate control) resulting in the Relative ATPase Activity values listed below in Table H.
A relative activity value of 1.0 or greater indicates 100% cellular ATPase activity at the concentration of detergent tested. A relative activity value of 0.5 indicates a two-fold (or 50%) decrease in the level of cellular ATPase activity at the concentration of detergent tested when compared to the ATPase activity level in the absence of the detergent. A relative activity value of 0.2 indicates a five-fold (or 80%) decrease in the level of cellular ATPase activity at the concentration of detergent tested when compared to the ATPase activity level in the absence of the detergent.

## TRITON X-100
0.05% detergent, 5 min
  Average Relative Light Unit Values: 6160.71 rlu
  Percent ATP Remaining: 100%
0.05% detergent, 75 min
  Average Relative Light Unit Values: 1964.17 rlu
  Percent ATP Remaining: 31.9%
0.05% detergent, 169 min
  Average Relative Light Unit Values: 822.48 rlu
  Percent ATP Remaining: 13.4%
0.05% detergent, 222 min
  Average Relative Light Unit Values: 303.73 rlu
  Percent ATP Remaining: 4.9%
0.05% detergent, 260 min
  Average Relative Light Unit Values: 147.48 rlu
  Percent ATP Remaining: 2.4%
0.05 percent detergent
  Relative ATPase Activity, slope det/slope lysate: 1.228
  Slope (log percent ATP remaining vs time in minutes): −0.0065
0.1% detergent, 5 min
  Average Relative Light Unit Values: 6837.20 rlu
  Percent ATP Remaining: 100%
0.1% detergent, 75 min
  Average Relative Light Unit Values: 3004.57 rlu
  Percent ATP Remaining: 43.9%
0.1% detergent, 169 min
  Average Relative Light Unit Values: 1643.05 rlu
  Percent ATP Remaining: 24.0%
0.1% detergent, 222 min
  Average Relative Light Unit Values: 801.38 rlu
  Percent ATP Remaining: 11.7%
0.1% detergent, 260 min
  Average Relative Light Unit Values: 448.93 rlu
  Percent ATP Remaining: 6.6%
0.10 percent detergent
  Relative ATPase Activity, slope det/slope lysate: 0.889
  Slope (log percent ATP remaining vs time in minutes): −0.0047
0.5% detergent, 5 min
  Average Relative Light Unit Values: 6106.61 rlu
  Percent ATP Remaining: 100%
0.5% detergent, 75 min
  Average Relative Light Unit Values: 1880.98 rlu
  Percent ATP Remaining: 30.8%
0.5% detergent, 169 min
  Average Relative Light Unit Values: 871.01 rlu
  Percent ATP Remaining: 14.3%
0.5% detergent, 222 min
  Average Relative Light Unit Values: 378.58 rlu
  Percent ATP Remaining: 6.2%
0.5% detergent, 260 min
  Average Relative Light Unit Values: 195.42 rlu
  Percent ATP Remaining: 3.2%
0.50 percent detergent
  Relative ATPase Activity, slope det/slope lysate: 1.117
  Slope (log percent ATP remaining vs time in minutes): −0.0059
1.0% detergent, 5 min
  Average Relative Light Unit Values: 6073.78 rlu
  Percent ATP Remaining: 100%
1.0% detergent, 75 min
  Average Relative Light Unit Values: 1774.10 rlu
  Percent ATP Remaining: 29.2%
1.0% detergent, 169 min
  Average Relative Light Unit Values: 839.14 rlu
  Percent ATP Remaining: 13.8%
1.0% detergent, 222 min
  Average Relative Light Unit Values: 331.95 rlu
  Percent ATP Remaining: 5.5%
1.0% detergent, 260 min
  Average Relative Light Unit Values: 174.89 rlu
  Percent ATP Remaining: 2.9%
1.00 percent detergent
  Relative ATPase Activity, slope det/slope lysate: 1.152
  Slope (log percent ATP remaining vs time in minutes): −0.0061

## C[C@H](CCC(=O)N(CCCNC(=O)[C@H](O)[C@@H](O)[C@H](O)[C@H](O)CO)CCCNC(=O)[C@H](O)[C@@H](O)[C@H](O)[C@H](O)CO)[C@H]1CC[C@H]2[C@@H]3[C@H](O)C[C@@H]4C[C@H](O)CC[C@]4(C)[C@H]3C[C@H](O)[C@]12C [BIGCHAP, N,N-bis(3-D-Gluconamidopropyl)cholamide]
0.05% detergent, 5 min
  Average Relative Light Unit Values: 6410.42 rlu
  Percent ATP Remaining: 100%
0.05% detergent, 75 min
  Average Relative Light Unit Values: 2260.45 rlu
  Percent ATP Remaining: 35.3%
0.05% detergent, 169 min
  Average Relative Light Unit Values: 1036.69 rlu
  Percent ATP Remaining: 16.2%
0.05% detergent, 222 min
  Average Relative Light Unit Values: 487.72 rlu
  Percent ATP Remaining: 7.6%
0.05% detergent, 260 min
  Average Relative Light Unit Values: 238.44 rlu
  Percent ATP Remaining: 3.7%
0.05 percent detergent
  Relative ATPase Activity, slope det/slope lysate: 1.069
  Slope (log percent ATP remaining vs time in minutes): −0.0056
0.1% detergent, 5 min
  Average Relative Light Unit Values: 6607.01 rlu
  Percent ATP Remaining: 100%
0.1% detergent, 75 min
  Average Relative Light Unit Values: 2087.01 rlu
  Percent ATP Remaining: 31.6%
0.1% detergent, 169 min
  Average Relative Light Unit Values: 1363.07 rlu
  Percent ATP Remaining: 20.6%
0.1% detergent, 222 min
  Average Relative Light Unit Values: 634.92 rlu
  Percent ATP Remaining: 9.6%
0.1% detergent, 260 min
  Average Relative Light Unit Values: 301.55 rlu
  Percent ATP Remaining: 4.6%
0.10 percent detergent
  Relative ATPase Activity, slope det/slope lysate: 0.968
  Slope (log percent ATP remaining vs time in minutes): −0.0051
0.5% detergent, 5 min
  Average Relative Light Unit Values: 7438.53 rlu
  Percent ATP Remaining: 100%
0.5% detergent, 75 min
  Average Relative Light Unit Values: 3618.22 rlu
  Percent ATP Remaining: 48.6%
0.5% detergent, 169 min
  Average Relative Light Unit Values: 2092.69 rlu
  Percent ATP Remaining: 28.1%
0.5% detergent, 222 min
  Average Relative Light Unit Values: 1144.80 rlu
  Percent ATP Remaining: 15.4%
0.5% detergent, 260 min
  Average Relative Light Unit Values: 677.61 rlu
  Percent ATP Remaining: 9.1%
0.50 percent detergent
  Relative ATPase Activity, slope det/slope lysate: 0.782
  Slope (log percent ATP remaining vs time in minutes): −0.0041
1.0% detergent, 5 min
  Average Relative Light Unit Values: 7576.05 rlu
  Percent ATP Remaining: 100%
1.0% detergent, 75 min
  Average Relative Light Unit Values: 4043.35 rlu
  Percent ATP Remaining: 53.4%
1.0% detergent, 169 min
  Average Relative Light Unit Values: 2474.59 rlu
  Percent ATP Remaining: 32.7%
1.0% detergent, 222 min
  Average Relative Light Unit Values: 1374.29 rlu
  Percent ATP Remaining: 18.1%
1.0% detergent, 260 min
  Average Relative Light Unit Values: 822.65 rlu
  Percent ATP Remaining: 10.9%
1.00 percent detergent
  Relative ATPase Activity, slope det/slope lysate: 0.725
  Slope (log percent ATP remaining vs time in minutes): −0.0038
